Results on 20 molecules are retold here after patent US20240150377A1, “MODULATORS OF CYSTIC FIBROSIS TRANSMEMBRANE CONDUCTANCE REGULATOR” (VERTEX PHARMACEUTICALS INCORPORATED, priority 2020, published 2024).

Like-named read-outs stand apart in the source and are kept apart here. Bounds are passed on as bounds.

One assay concerns the target T1, F508del (Homo sapiens, UniProt P13569, DEL508-508).
T1 construct: expressed in transfected cells
Put plainly: 3T3 assay: membrane potential optical assay for F508del correction. The following applies: F508del NIH 3T3 cells; for Emax: NIH3T3, compared to lumacaftor in combination with acutely added 300 nM Ivacaftor, read-out: 3T3 Max Activity; for EC50: 18-24 hours at 37° C., forskolin, acutely added 300 nM Ivacaftor. In kind it is cell-based. The source says: 1. Membrane Potential Optical Methods for Assaying F508del Modulation Properties of Compounds
The assay utilizes fluorescent voltage sensing dyes to measure changes in membrane potential using a fluorescent plate reader (e.g., FLIPR III, Molecular Devices, Inc.) as a readout for increase in functional F508del in NIH 3T3 cells. The driving force for the response is the creation of a chloride ion gradient in conjunction with channel activation by a single liquid addition step after the cells have previously been treated with compounds and subsequently loaded with a voltage sensing dye.
2. Identification of Corrector Compounds
To identify correctors of F508del, a single-addition HTS assay format was developed. This HTS assay utilizes fluorescent voltage sensing dyes to measure changes in membrane potential on the FLIPR III as a measurement for increase in gating (conductance) of F508del in F508del NIH 3T3 cells. The F508del NIH 3T3 cell cultures were incubated with the corrector compounds at a range of concentrations for 18-24 hours at 37° C., and subsequently loaded with a redistribution dye. The driving force for the response is a Cl^− ion gradient in conjunction with channel activation with forskolin in a single liquid addition step using a fluorescent plate reader such as FLIPR III.
Bath Solution #1: (in mM) NaCl 160, KCl 4.5, CaCl2) 2, MgCl2 1, HEPES 10, pH 7.4 with NaOH.
Chloride-free bath solution: Chloride salts in Bath Solution #1 (above) are substituted with gluconate salts.
NIH3T3 mouse fibroblasts stably expressing F508del are used for optical measurements of membrane potential. The cells are maintained at 37° C. in 5% CO2 and 90% humidity in Dulbecco's modified Eagle's medium supplemented with 2 mM glutamine, 10% fetal bovine serum, 1× NEAA, b-ME, 1×pen/strep, and 25 mM HEPES in 175 cm^2 culture flasks. For all optical assays, the cells were seeded at ˜20,000/well in 384-well Matrigel-coated plates. For the correction assays, the cells are cultured at 37° C. with and without compounds for 16-24 hours.

The target in the next assay is CFTR (Homo sapiens, UniProt P13569). Nature of the assay: Membrane potential dye, Enteroid Assay A. The class given is cell-based. The following applies: for Ent. A Max Activity: chloride transport as % of triple combination control (Enteroid Assay A); for EC50: human enteroid cells, 18-24 hours, acute 10 μM forskolin and 300 nM ivacaftor, read-out: Ent. A EC50. In short, it runs like this: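 Human intestinal enteroids incubated 18-24 h at 37 °C with test compound, then loaded with 20 μM methyl oxonol (with CaCC inhibitors). Chloride transport triggered in chloride-free buffer with 10 μM forskolin, 100 μM IBMX, 300 nM Compound III; fluorescence read 15 min, expressed as % of a triple-combination corrector/potentiator control.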
Chain of CFTR (P13569 with tags, fused parts or gaps DEL508-508): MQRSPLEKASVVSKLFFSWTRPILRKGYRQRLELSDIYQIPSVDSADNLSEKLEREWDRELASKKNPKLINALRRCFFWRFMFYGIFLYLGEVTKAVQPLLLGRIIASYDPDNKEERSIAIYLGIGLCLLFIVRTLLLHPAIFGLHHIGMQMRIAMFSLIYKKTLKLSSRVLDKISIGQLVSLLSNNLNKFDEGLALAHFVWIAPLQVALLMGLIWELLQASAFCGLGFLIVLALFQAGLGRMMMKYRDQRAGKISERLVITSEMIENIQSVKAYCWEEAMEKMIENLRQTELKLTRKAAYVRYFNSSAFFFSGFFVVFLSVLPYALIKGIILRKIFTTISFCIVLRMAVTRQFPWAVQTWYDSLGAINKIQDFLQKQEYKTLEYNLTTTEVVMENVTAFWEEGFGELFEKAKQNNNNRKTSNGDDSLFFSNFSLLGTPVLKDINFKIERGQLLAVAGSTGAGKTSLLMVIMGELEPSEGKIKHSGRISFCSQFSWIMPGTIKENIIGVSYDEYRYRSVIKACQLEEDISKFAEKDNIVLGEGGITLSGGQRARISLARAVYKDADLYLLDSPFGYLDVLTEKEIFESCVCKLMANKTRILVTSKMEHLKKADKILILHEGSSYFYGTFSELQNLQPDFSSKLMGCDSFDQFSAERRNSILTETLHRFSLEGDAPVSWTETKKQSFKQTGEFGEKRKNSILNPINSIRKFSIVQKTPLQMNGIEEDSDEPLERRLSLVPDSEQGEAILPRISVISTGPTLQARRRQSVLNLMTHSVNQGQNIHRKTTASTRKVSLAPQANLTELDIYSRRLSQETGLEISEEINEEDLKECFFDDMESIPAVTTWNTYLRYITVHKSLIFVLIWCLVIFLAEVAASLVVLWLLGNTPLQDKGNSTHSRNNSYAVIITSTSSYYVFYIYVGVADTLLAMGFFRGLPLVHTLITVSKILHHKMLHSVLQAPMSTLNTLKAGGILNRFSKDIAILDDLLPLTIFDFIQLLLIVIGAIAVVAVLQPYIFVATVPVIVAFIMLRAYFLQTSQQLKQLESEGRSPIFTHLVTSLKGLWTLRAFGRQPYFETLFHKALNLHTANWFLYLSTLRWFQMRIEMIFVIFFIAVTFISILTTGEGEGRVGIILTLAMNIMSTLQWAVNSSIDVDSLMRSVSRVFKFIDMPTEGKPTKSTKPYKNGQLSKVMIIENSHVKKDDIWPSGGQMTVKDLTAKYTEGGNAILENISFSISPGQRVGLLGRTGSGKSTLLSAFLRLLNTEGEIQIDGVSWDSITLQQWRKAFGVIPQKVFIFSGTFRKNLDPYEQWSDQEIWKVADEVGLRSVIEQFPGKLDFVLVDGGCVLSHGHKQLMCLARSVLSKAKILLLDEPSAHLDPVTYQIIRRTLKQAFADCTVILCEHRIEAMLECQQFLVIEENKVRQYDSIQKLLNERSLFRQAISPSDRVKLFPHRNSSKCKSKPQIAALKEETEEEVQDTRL

T1 sequence (P13569 with tags, fused parts or gaps DEL508-508): as above

For the molecule `Cc1cccc(C)c1-c1cc2nc(n1)NS(=O)(=O)c1cccc(c1)C(=O)N(Cc1ccc(C#N)cc1)[C@H](CC(C)C)CO2` [Compound 78, 4-[[(11R)-6-(2,6-Dimethylphenyl)-11-isobutyl-2,2,13-trioxo-9-oxa-2λ^6-thia-3,5,12,19-tetrazatricyclo[12.3.1.14,8]nonadeca-1(18),4(19),5,7,14,16-hexaen-12-yl]methyl]benzonitrile], at F508del (Table 6), the Emax was over 60% and the EC50 was under 1000 nM. Besides, on CFTR (Table 6), the “Ent. A Max Activity” value is “+++ (+++ is >60%)” and the EC50 was under 1000 nM.

Regarding `Cc1cccc(C)c1-c1cc2nc(n1)NS(=O)(=O)c1cccc(c1)C(=O)N(CCC1CCOCC1)[C@H](CC(C)C)CO2` [Compound 79, (11R)-6-(2,6-Dimethylphenyl)-11-isobutyl-2,2-dioxo-12-(2-tetrahydropyran-4-ylethyl)-9-oxa-2λ^6-thia-3,5,12,19-tetrazatricyclo[12.3.1.14,8]nonadeca-1(18),4(19),5,7,14,16-hexaen-13-one], at F508del (Table 6), the Emax was over 60% and the EC50 was under 1000 nM. Moreover, at CFTR (Table 6), the “Ent. A Max Activity” value was “+++ (+++ is >60%)” and the EC50 is under 1000 nM.

In the case of `Cc1cccc(C)c1-c1cc2nc(n1)NS(=O)(=O)c1cccc(c1)C(=O)N(CCO)[C@H](CC(C)C)CO2` [Compound 80, (11R)-6-(2,6-Dimethylphenyl)-12-(2-hydroxyethyl)-11-isobutyl-2,2-dioxo-9-oxa-2λ^6-thia-3,5,12,19-tetrazatricyclo[12.3.1.14,8]nonadeca-1(18),4(19),5,7,14,16-hexaen-13-one], at F508del (Table 6), the Emax was over 60% and the concentration giving a half-maximal response (EC50) is under 1000 nM. Moreover, at CFTR (Table 6), the “Ent. A Max Activity” value is “+++ (+++ is >60%)” and the 50% effective concentration (EC50) was under 1000 nM.

For `Cc1cccc(C)c1-c1cc2nc(n1)NS(=O)(=O)c1cccc(c1)C(=O)N(CCC1CCN(C(C)C)CC1)[C@H](CC(C)C)CO2` [Compound 85, (11R)-6-(2,6-Dimethylphenyl)-11-isobutyl-12-[2-(1-isopropyl-4-piperidyl)ethyl]-2,2-dioxo-9-oxa-2λ^6-thia-3,5,12,19-tetrazatricyclo[12.3.1.14,8]nonadeca-1(18),4(19),5,7,14,16-hexaen-13-one], on F508del (Table 7), the Emax is over 60% and the EC50 was under 1000 nM. In addition, at CFTR (Table 7), the “Ent. A Max Activity” value is reported as “+++ (+++ is >60%)” and the EC50 was under 1000 nM.

Regarding `Cc1cccc(C)c1-c1cc2nc(n1)NS(=O)(=O)c1cccc(c1)C(=O)N(C)[C@H](C)[C@H](c1ccc(C(C)(C)C)cc1)O2` [Compound 338], at F508del (Table 6), the Emax was over 60% and the EC50 is under 1000 nM. On CFTR (Table 6), the “Ent. A Max Activity” value was “+ (+ is <30%)”.

As for `Cc1cccc(C)c1-c1cc2nc(n1)NS(=O)(=O)c1cccc(c1)C(=O)N(C)[C@H](C)[C@@H](c1ccc(C(C)(C)C)cc1)O2` [Compound 339], at F508del (Table 6), the Emax is over 60% and the EC50 is under 1000 nM. In addition, on CFTR (Table 6), the “Ent. A Max Activity” value was “++ (++ is 30-60%)” and the concentration for a half-maximal effect (EC50) was under 1000 nM.

Take `COc1ccc(CN2C(=O)c3cccc(c3)S(=O)(=O)Nc3nc(cc(-c4c(C)cccc4C)n3)OC[C@H]2CC(C)C)cc1` [Compound 347]: at F508del (Table 6), the Emax is over 60% and the EC50 is under 1000 nM. On CFTR (Table 6), the “Ent. A Max Activity” value is recorded as “+++ (+++ is >60%)” and the 50% effective concentration (EC50) was under 1000 nM.

As for `Cc1cccc(C)c1-c1cc2nc(n1)NS(=O)(=O)c1cccc(c1)C(=O)N(CCCC1CCOCC1)[C@H](CC(C)C)CO2` [Compound 353], at F508del (Table 6), the Emax is over 60% and the concentration giving a half-maximal response (EC50) is under 1000 nM. At CFTR (Table 6), the “Ent. A Max Activity” value is on record as “+++ (+++ is >60%)” and the EC50 was under 1000 nM.

Regarding `CCCCCCCCN1C(=O)c2cccc(c2)S(=O)(=O)Nc2nc(cc(-c3c(C)cccc3C)n2)OC[C@H]1CC(C)C` [Compound 361], on F508del (Table 6), the Emax was over 60% and the EC50 is under 1000 nM. On CFTR (Table 6), the “Ent. A Max Activity” value was “+++ (+++ is >60%)” and the EC50 was under 1000 nM.

As for `CCCCCN1C(=O)c2cccc(c2)S(=O)(=O)Nc2nc(cc(-c3c(C)cccc3C)n2)OC[C@H]1CC(C)C` [Compound 362], at F508del (Table 6), the Emax is over 60% and the 50% effective concentration (EC50) was under 1000 nM. For the same molecule, at CFTR (Table 6), the “Ent. A Max Activity” value is “+++ (+++ is >60%)” and the EC50 is under 1000 nM.

As to `Cc1cccc(C)c1-c1cc2nc(n1)NS(=O)(=O)c1cccc(c1)C(=O)N(CCC1CCN(C)CC1)[C@H](CC(C)C)CO2` [Compound 418], at F508del (Table 6), the Emax is over 60% and the concentration for a half-maximal effect (EC50) is under 1000 nM. Also, on CFTR (Table 6), the “Ent. A Max Activity” value is reported as “+++ (+++ is >60%)” and the EC50 is under 1000 nM.

Turning to `CNC(=O)c1ccc(CN2C(=O)c3cccc(c3)S(=O)(=O)Nc3nc(cc(-c4c(C)cccc4C)n3)OC[C@H]2CC(C)C)cc1` [Compound 419], at F508del (Table 6), the Emax is over 60% and the EC50 is under 1000 nM. At CFTR (Table 6), the “Ent. A Max Activity” value is “+++ (+++ is >60%)” and the concentration for a half-maximal effect (EC50) was under 1000 nM.

For the molecule `Cc1cccc(C)c1-c1cc2nc(n1)NS(=O)(=O)c1cccc(c1)NC(=O)CN(C(=O)OC(C)(C)C)CCO2` [Compound 516], on F508del (Table 6), the Emax was over 60% and the concentration giving a half-maximal response (EC50) was under 1000 nM. Moreover, at CFTR (Table 6), the “Ent. A Max Activity” value was “+++ (+++ is >60%)” and the EC50 was 3000 to 30000 nM.

As for `Cc1cccc(C)c1-c1cc2nc(n1)NS(=O)(=O)c1cccc(c1)C(=O)N(C)C[C@H](c1ccc(C3CC3)cc1)O2` [Compound 669], on F508del (Table 7), the Emax was over 60% and the EC50 is under 1000 nM. Further, at CFTR (Table 7), the “Ent. A Max Activity” value was “++ (++ is 30-60%)” and the concentration for a half-maximal effect (EC50) is under 1000 nM.

On to `Cc1cccc(C)c1-c1cc2nc(n1)NS(=O)(=O)c1cccc(c1)C(=O)N(CCC(C)C)[C@H](CCC1(C(F)(F)F)CC1)CO2` [Compound 850], for which, at F508del (Table 6), the Emax was over 60% and the EC50 was under 1000 nM. Moreover, on CFTR (Table 6), the “Ent. A Max Activity” value is reported as “+++ (+++ is >60%)” and the EC50 is under 1000 nM.

Turning to `Cc1cccc(C)c1-c1cc2nc(n1)NS(=O)(=O)c1cccc(c1)C(=O)N(CC(C)C)[C@H](CC(C)C)CO2` [Compound 865], at F508del (Table 6), the Emax was over 60% and the EC50 is under 1000 nM. On CFTR (Table 6), the “Ent. A Max Activity” value was “+++ (+++ is >60%)” and the EC50 was under 1000 nM.

For the molecule `Cc1cccc(C)c1-c1cc2nc(n1)NS(=O)(=O)c1cccc(c1)C(=O)N(Cc1ccc(N3CCCCC3)nc1)[C@H](CC(C)C)CO2` [Compound 974], on F508del (Table 7), the Emax is over 60% and the EC50 was under 1000 nM. Besides, on CFTR (Table 7), the “Ent. A Max Activity” value was “+++ (+++ is >60%)” and the 50% effective concentration (EC50) was under 1000 nM.

Take `Cc1cccc(C)c1-c1cc2nc(n1)NS(=O)(=O)c1cccc(c1)CN(CCC(F)(F)F)[C@H](CC(C)C)CO2` [Compound 1021]: on F508del (Table 7), the Emax is over 60% and the EC50 is under 1000 nM. Moreover, at CFTR (Table 7), the “Ent. A Max Activity” value was “++ (++ is 30-60%)” and the 50% effective concentration (EC50) was under 1000 nM.

In the case of `Cc1cccc(C)c1-c1cc2nc(n1)NS(=O)(=O)c1cccc(c1)CN(CCCC1(C(F)(F)F)CC1)[C@H](CC(C)C)CO2` [Compound 1023], at F508del (Table 7), the Emax was over 60% and the EC50 was under 1000 nM. In addition, on CFTR (Table 7), the “Ent. A Max Activity” value is on record as “++ (++ is 30-60%)” and the EC50 was under 1000 nM.

For `Cc1cccc(C)c1-c1cc2nc(n1)NS(=O)(=O)c1cccc(c1)CN(CCC1(C(F)(F)F)CC1)[C@H](CC(C)C)CO2` [Compound 1024], at F508del (Table 7), the Emax is over 60% and the EC50 is under 1000 nM. On CFTR (Table 7), the “Ent. A Max Activity” value was “++ (++ is 30-60%)” and the EC50 was under 1000 nM.

Usually EC50 stands for the concentration that produces a half-maximal response.
